# From patent US20150023954A1, “POTENTIATING ANTIBODY-INDUCED COMPLEMENT-MEDIATED CYTOTOXICITY VIA PI3K INHIBITION” (MEMORIAL SLOAN-KETTERING CANCER CENTER, priority 2012, published 2015)
# “Also recorded” adds a separate entry of the source.
# Key:
# tumor cells = test: Cell growth experiments with MEK inhibitors and low dose PGNX; format: cell-based; settings: PGNX less than 0.0001 μg/m; AZD6244 0.1 μM-5.0 μM; data not shown
# From the text: (§1) WST-1 assay. […] The Student t test was used for statistical analysis.
# DaudiLuc cells = test: WST-1 cell growth assay, DaudiLuc; format: cell-based, human
# From the text: as §1
# CHLA136Luc cells [1] = test: IV CHLA136Luc tumor challenge in SCID mice: survival and tumor growth by luciferase imaging; format: in vivo, CB17 SCID mice
# Experimental: Animals. CB17 SCID mice (Taconic) 5-8 weeks old were housed 5 to a cage. The Memorial Sloan Kettering Cancer Center Institutional Animal Care and Use Committee (IACUC) approved all protocols and procedures.
# Tumor Challenge. Mice were placed under a heat lamp for 3 minutes and immobilized in a mouse restrainer; 0.5 million CHLA136Luc cells in 100 μl were injected into the tail vein using a BD insulin syringe with 28 gauge needle.
# (§2) mAb administration. Mice were treated with murine mAbs 3F8, PGNX, R24, against GD2, GM2, GD3 and Rituxan against CD20. Control mice, typically 2 cages of 5 mice, were treated identically, receiving the same volume of PBS at the same intervals.
# Imaging. Mice were anaesthetized using isoflurane and injected with 300 μg of D-Luciferin Firefly (Caliper LifeScience, Hopkinton, Mass.). They were imaged 10 minutes later using the IVIS200 in vivo imaging system (Caliper Life Science) over periods of time ranging up to 3 minutes using the software program “Living Image 3.0” (Caliper Life Science). Values are reported as photons/second.
# Statistical analysis. Overall survival was defined as the time from IV tumor cell challenge to date of death or day 160. Survival distributions were generated using Kaplan-Meier methodology (Kaplan, “Nonparametric estimation from incomplete observations”, J. Am. Stat. Assoc., 1958, 53:457-81) and comparisons between treatment group and control (PBS) were made via the […] (using Graphpad Prism 5).
# p-Akt [2] = test: Western blot and immunofluorescent staining of p-Akt in Colo205 cells; format: cell-based
# Experimental: (§3) Western blot. 1×10^6 Cells were plated into 6 well plates and incubated overnight. Cells were then treated with BEZ235, mAbs and human sera complement at the dose indicated for 4 hours. At the end of incubation, cells were collected and lysed with lysis buffer from Cell Signal (Danvers, Mass.), which contains protease inhibitor cocktail and phosphatase inhibitor cocktail (Calbiochem, Philadelphia, Pa.), each at 1:100 dilution (Cocktails:lysis buffer). The cell lysates were then quantitated using Bradford assay (Bio-Rad, Hercules, Calif.) according to that company's manual: 30 μg of cell lysate protein from each sample were running on 7.5% of Tris-HCL gel (Bio-Rad) and transferred to a PVDF membrane. Membrane was then blocked with Pierce blocking buffer overnight at 4° C., probed with indicated mAbs at 1:1000 dilution overnight at 4° C. and HRP-goat anti-rabbit-IgG antibody at 1:1000 for 1 hour. The membrane was washed with PBS-T (0.1% Tween-20+PBS) 5 minutes on a shaker 5 times after each incubating and then developed using Amersham™ ECL™ Prime Western Blotting Detection Reagent (GE Healthcare, Piscataway, N.J.). Imaging was acquired by scanning the membrane on the FujiFilm LAS-3000 Imager.
# Colo205Luc cells [3] = test system: Colo205Luc cells
# Experimental: (§4) WST-1 assay. WST-1 cell proliferation assay kit was used for detection of the extent of cellular proliferation according to the company's manual. Briefly, 20,000 cells in 100 μl of culture media as defined above were plated in a 96 well flat bottom plate and incubated at 37° C. in 5% CO2 overnight. Antibody doses between 0.02 ρg to 5 μg in 1 μl of defined culture media were added to each well and incubated for 1 hour at 37° C., 5% CO2; 4-10 μl of human serum complement (Quidel Corp. San Diego, Calif.) was then added to each well and incubated overnight. For assays testing the impact of PI3K inhibitor, BEZ235 (Chemdea, Ridgewood, N.J.) at 0.005, 0.5 or 5.0 μg/ml were added accordingly at same time when mAb was added. WST-1 agent (Roche Applied Science, Indianapolis Ind.) was added at 1:10 ratio at the end of incubation, and OD (Optical density) was acquired by reading the plates at 415 nm 4 hours later. The Student t test was used for statistical analysis.
# p-PRAS40 = test: Western blot of p-PRAS40 in CHLA136Luc cell extracts; format: cell-based, human; settings: BEZ235; cells treated with PGNX 0.001 μg/m for 4 hours
# Experimental: as §3
# p-Akt [4] = test: Western blot of p-Akt in CHLA136Luc cell extracts; format: cell-based, human; settings: BEZ235; cells treated with PGNX 0.001 μg/m for 4 hours
# Experimental: as §3
# CHLA136Luc cells [5] = test: WST-1 cell growth assay, CHLA136Luc; format: cell-based, human; settings: for higher mAb dose (plus complement) cytotoxicity / low mAb dose (plus complement) growth acceleration: all inhibitor dose levels, with PGNX, 18 hours
# From the text: as §1
# Colo205Luc cells [6] = test: Cell growth assay, Colo205; settings: for 5B1 cytotoxicity: all inhibitor doses tested, overnight with mAb 5B1 and HuC 5%; for tumor cell (Colo205) growth: high concentration of antibody, better than either inhibitor alone (FIG. 5C, 5D); for PGNX induced tumor cell cytotoxicity: highest PGNX and inhibitor dose tested; for tumor cell growth induced by low dose PGNX and complement: low dose PGNX (e.g., 0.0001 μg/ml), HuC′ 50 μl/ml
# Experimental: as §4
# CD20 = test: In vivo experiments targeting CD20 (Rituxan): tumor growth; parameters: species or system SCID mice; settings: data not shown
# Experimental: as §2
# Hs445 = test: WST-1 cell growth assay, Hs445; format: cell-based, human; settings: low dose, six experiments
# From the text: as §1
# [7] = test system: CHLA136Luc, Lan-1-Luc, H524, Hs445, Daudi cells; test: In vitro cell growth (WST-1) with mAbs and human complement on selected cell lines (FIG. 3); format: cell-based
# From the text: as §1
# [8] = BEZ235 alone, 25 or 12.5 mg/kg by gavage daily for 2 weeks
molecule,measurement,setting,value
Cn1cnc2c(F)c(Nc3ccc(Br)cc3Cl)c(C(=O)NOCCO)cc21 [AZD6244],cytotoxicity of PGNX at sublytic low dosages,tumor cells,enhanced
Cn1c(=O)n(-c2ccc(C(C)(C)C#N)cc2)c2c3cc(-c4cnc5ccccc5c4)ccc3ncc21 [BEZ235],cell growth in vitro,DaudiLuc cells; BEZ235,decreased
same,mAb cytotoxicity,"DaudiLuc cells; all BEZ235 doses tested, combined with Rituxan at various doses plus complement, vs each treatment alone",significantly enhanced; also recorded: increased
same,accelerated cell growth induced by low dose mAb,DaudiLuc cells; combined with low-dose Rituxan (0.0001 μg/ml) plus complement,significantly inhibited; also recorded: prevented
same,CHLA136Luc growth,CHLA136Luc cells [1]; [8],significantly reduced
same,survival,CHLA136Luc cells [1]; [8],prolonged survival
same,high mAb dose induced growth inhibition,CHLA136Luc cells [1]; BEZ235 by gavage with high dose mAb,increased
same,low dose mAb (PGNX) induced early tumor growth acceleration,CHLA136Luc cells [1]; BEZ235 by gavage with low-dose PGNX,eliminated; also recorded: preventing; also recorded: prevented
same,survival of challenged SCID mice,"CHLA136Luc cells [1]; BEZ235 with mAbs, compared with high-dose PGNX and 3F8 alone",significantly increasing survival
same,p-Akt expression,p-Akt [2]; BEZ235 1 μM alone,inhibited; also recorded: decreased p-AKT
same,treatment time giving complete inhibition of p-Akt expression,p-Akt [2]; BEZ235 at 1 μM,≥ 2 h
same,BEZ235 dose giving complete inhibition of p-AKT expression,p-Akt [2]; cells treated for 4 hrs,≥ 0.5 µM
same,cytotoxicity of Colo205luc cells,Colo205Luc cells [3],significantly enhanced
same,p-PRAS40 expression,p-PRAS40,inhibited
same,p-Akt expression,p-Akt [4],inhibited
same,effect on proliferation compared to Wortmannin,CHLA136Luc cells [5],greater effect
same,cell growth in vitro,CHLA136Luc cells [5]; BEZ235,decreased
same,mAb cytotoxicity and low-dose growth acceleration,CHLA136Luc cells [5]; BEZ235 with mAbs R24 and PGNX (Table 2),Comparable results
same,mAb cytotoxicity,"CHLA136Luc cells [5]; all BEZ235 doses tested, combined with 3F8 at various doses plus complement, vs each treatment alone",significantly enhanced; also recorded: increased
same,accelerated cell growth induced by low dose mAb,CHLA136Luc cells [5]; combined with low-dose 3F8 (0.001 μg/ml) plus complement,significantly inhibited; also recorded: prevented
same,effect on proliferation compared to Wortmannin,Colo205Luc cells [6],greater effect
same,accelerated cell growth induced by low dose 5B1,"Colo205Luc cells [6]; 5B1 0.001-0.01 μg/ml (BEZ235), 0.001 μg/ml (Wortmannin)",inhibited
Nc1cc(C(F)(F)F)c(-c2cc(N3CCOCC3)nc(N3CCOCC3)n2)cn1 [BKM120],higher mAb dose (plus complement) cytotoxicity,CHLA136Luc cells [5],increased
same,low mAb dose (plus complement) growth acceleration,CHLA136Luc cells [5],prevented
same,5B1 cytotoxicity,Colo205Luc cells [6],enhanced
same,tumor cell (Colo205) growth,Colo205Luc cells [6],inhibited
same,PGNX induced tumor cell cytotoxicity,Colo205Luc cells [6],enhanced
same,tumor cell growth induced by low dose PGNX and complement,Colo205Luc cells [6],dramatically inhibited
CC(=O)Nc1cccc(-n2c(=O)n(C3CC3)c(=O)c3c(Nc4ccc(I)cc4F)n(C)c(=O)c(C)c32)c1 [GSK202011],cytotoxicity of PGNX at sublytic low dosages,tumor cells,enhanced
NC1(c2ccc(-c3nc4ccn5c(=O)[nH]nc5c4cc3-c3ccccc3)cc2)CCC1 [MK2206],higher mAb dose (plus complement) cytotoxicity,CHLA136Luc cells [5],increased
same,low mAb dose (plus complement) growth acceleration,CHLA136Luc cells [5],prevented
same,5B1 cytotoxicity,Colo205Luc cells [6],enhanced
same,tumor cell (Colo205) growth,Colo205Luc cells [6],inhibited
same,PGNX induced tumor cell cytotoxicity,Colo205Luc cells [6],enhanced
same,tumor cell growth induced by low dose PGNX and complement,Colo205Luc cells [6],dramatically inhibited
rituximab [Rituxan],cell growth,"DaudiLuc cells; low dose, single experiment",significantly accelerated growth
same,tumor growth,CD20; doses as low as 0.001 mcg,slight delay of tumor growth
same,accelerated tumor growth,CD20; doses down to 0.001 mcg,not seen
same,experiments with significantly accelerated growth,Hs445,4
same,tumor growth in vitro,"[7]; high mAb doses, with complement",inhibited tumor growth
same,complement-independent tumor inhibition,"[7]; highest mAb doses, absence of complement",detected
same,tumor cell growth in vitro,"[7]; low mAb doses, exclusively in the presence of complement",accelerated tumor cell growth
